Counter-ions that a name gives are not always drawn.

The conditions of data set [1]: IV infusion from 0.2 mcg/kg/hr, schizophrenia patients.
Description: All participants were screened for inclusion and exclusion criteria. The participants were admitted to the site at screening (Day −1), the day before the infusion. Baseline assessments were performed on Day −1, as well as on the day of infusion (Day 1). The participants were on Day 1 prepared for the infusion, infused for up to 3 hours and monitored for resolution of sedation and any decreases in blood pressure or heart rate which met stopping criteria. The participants were not discharged from the research unit until three hours after resolution of any reduction in the level of arousal (e.g., RASS −1) and/or resolution of any decrease in blood pressure or heart rate meeting stopping criteria.
Participants randomized to placebo received a matching intravenous infusion of placebo solution.
Once the participant was drowsy (RASS −1), the infusion was stopped. […]
(1) Richmond Agitation Sedation Scale (RASS): The desired endpoint was how rapidly drowsiness (RASS −1) could be achieved without causing changes in heart rate or blood pressure greater than that specified by the protocol. The study also monitored how long the participant remained at that level of sedation; sedation was considered resolved when the participant was awake and spontaneously responding.
For data set [2] the following is noted: sublingual dose of 100 micrograms, human subjects; cited from earlier work.
The conditions of data set [3]: human, in vivo, iv.

Regarding `Cc1cccc([C@H](C)c2cnc[nH]2)c1C` [dexmedetomidine hydrochloride, (+) 4-(S)-[1-(2,3-dimethylphenyl)ethyl]-1H-imidazole], in data set [1], the “patients in the treatment arm achieving a RASS score of at least −1” value is 9 out of 10. Further, where the note is “IV infusion, schizophrenia patients”, the “patients in the treatment arm with agitation reduced to a minimum (PEC score of 7 or below)” value is given as 9 out of 10. Also, the “subjects with >=50% reduction in PEC score” value (IV route, schizophrenia) is 7 of 10. Moreover, the hypotension post-administration entry in data set [2] is given as “Hypotension was observed”. In addition, in data set [3], the “Time to reach Cmax” value lay within 15 to 105 min.

The values above are taken from patent publication US11559484B2, “Film formulations containing dexmedetomidine and methods of producing them” (BioXcel Therapeutics, Inc., priority 2018, dated 2023).
